Test results from patent US20100056560A1, “USE FOR TREATING OBESITY AND DIABETES” (priority 2006, published 2010).

Tested on: adiponectin
Assay: Expression of adiponectin in 3T3-L1 adipocytes (Western blot)
Type: cell-based, Mouse
Conditions: 3T3-L1, 100 μM isoflavone, 1 mM L-carnitine, 1 mM L-arginine, 100 ppm caffeine, 24 hours
Protocol: Mouse undifferentiated 3T3-L1 adipocytes) (purchased from ATCC) were cultured in 10% calf serum-containing DMEM (Dulbecco's modified Eagle's medium, Gibco 1210-0038) in a 10% CO2 incubator to a confluency of 70% while replacing the medium with a fresh medium at 2-day intervals. For differentiation into adipocytes, the cells were cultured in a medium (containing 10% fetal bovine serum, 0.5 mM 3-isobutyl-1-methyxanthine (Sigma), 1 μM dexamethasone (Sigma) and 167 nM insulin (Novo-Nordisk)) for 48 hours, and then the medium was replaced with a DMEM medium (containing 10% fetal bovine serum and 167 nM insulin), in which the cells were further cultured for 48 hours. Finally, the cells were further cultured in a medium (containing only 10% fetal bovine serum) for 48 hours, thus obtaining differentiated adipocytes.
The adipocytes, differentiated in the step 1, were cultured in a medium, containing 51 fatty acid-free calf serum, for 16 hours. On the next day, the cultured cells were washed three times with PBS, and then treated with each of 100 μM isoflavone, 1 mM L-carnitine, 1 mM L-arginine, 100 ppm caffeine and a mixture of 100 μM isoflavone+1 mM L-carnitine+1 mM L-arginine+100 ppm caffeine. After 24 hours of cell incubation, a protein was isolated from each of the media and subjected to Western blot analysis in order to examine a change in the expression of adiponectin.

Cn1c(=O)c2c(ncn2C)n(C)c1=O [caffeine]
expression of adiponectin: decrease in the expression of adiponectin
